The values below come from BindingDB's records for doi:10.1016/j.bioorg.2016.03.011 (Beni-Suef University, 2016).

This test has as its target Epidermal growth factor receptor (Homo sapiens, UniProt P00533). Kind of test: Kinase-Glo Plus Luminescence Kinase Assay. How it is done: Kinase activity was determined using Kinase-Glo Plus luminescence kinase assay kit according to the manufacturer instructions. The assays depend on the quantitation of the amount of ATP remaining in the solution of kinase reaction.
In general terms: Kinase-Glo measures the ATP left after a reaction by luminescence.

pIC50: −log10 of the molar value.

Epidermal growth factor receptor, sequence (P00533 whole entry): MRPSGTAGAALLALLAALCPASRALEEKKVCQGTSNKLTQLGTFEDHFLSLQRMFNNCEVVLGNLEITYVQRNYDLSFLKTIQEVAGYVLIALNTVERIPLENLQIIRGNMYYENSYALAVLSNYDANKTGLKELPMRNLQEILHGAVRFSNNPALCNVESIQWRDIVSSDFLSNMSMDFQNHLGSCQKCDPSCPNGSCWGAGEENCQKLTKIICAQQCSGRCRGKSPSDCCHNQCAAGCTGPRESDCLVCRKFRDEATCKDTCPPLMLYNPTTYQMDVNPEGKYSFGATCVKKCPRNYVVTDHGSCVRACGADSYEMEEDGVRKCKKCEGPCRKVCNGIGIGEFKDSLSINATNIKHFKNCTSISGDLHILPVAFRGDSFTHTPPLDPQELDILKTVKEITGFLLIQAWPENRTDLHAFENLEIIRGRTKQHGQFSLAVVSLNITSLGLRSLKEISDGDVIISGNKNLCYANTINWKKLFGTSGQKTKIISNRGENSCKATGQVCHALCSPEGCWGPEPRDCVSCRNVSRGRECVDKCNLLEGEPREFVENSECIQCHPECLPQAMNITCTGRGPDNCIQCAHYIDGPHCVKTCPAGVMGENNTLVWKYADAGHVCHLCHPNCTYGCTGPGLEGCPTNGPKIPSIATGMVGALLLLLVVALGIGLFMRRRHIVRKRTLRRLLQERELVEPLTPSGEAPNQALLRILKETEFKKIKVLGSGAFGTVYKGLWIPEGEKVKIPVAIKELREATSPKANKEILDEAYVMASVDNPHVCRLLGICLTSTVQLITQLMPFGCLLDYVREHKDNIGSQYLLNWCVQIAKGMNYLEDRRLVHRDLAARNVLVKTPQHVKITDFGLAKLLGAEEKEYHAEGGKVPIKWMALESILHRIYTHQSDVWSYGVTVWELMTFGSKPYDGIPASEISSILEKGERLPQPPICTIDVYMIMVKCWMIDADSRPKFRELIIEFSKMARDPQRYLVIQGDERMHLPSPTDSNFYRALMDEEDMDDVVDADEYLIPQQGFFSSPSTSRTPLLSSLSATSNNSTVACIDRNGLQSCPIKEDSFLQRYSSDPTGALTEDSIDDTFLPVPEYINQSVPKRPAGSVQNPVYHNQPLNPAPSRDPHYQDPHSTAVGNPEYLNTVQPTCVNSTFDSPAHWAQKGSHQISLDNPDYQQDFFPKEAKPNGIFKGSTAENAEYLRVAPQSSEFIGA

For `Cc1cc(OCC(=O)N/N=C/c2ccc(C(F)(F)F)cc2)c2c(C)nn(-c3ccccc3)c2n1` [N-(4-Trifluoromethylbenzylidene)-2-(3,6-dimethyl-1-phenyl-1H-pyrazolo[3,4-d]pyrimidin-4-yloxy)acetohydrazide (12f)], the pIC50 (as a rule, the IC50 on a negative log10 scale, so that one unit is a factor of ten) was 4.45.

For `Cc1cc(OCC(=O)N/N=C/c2ccc(F)cc2)c2c(C)nn(-c3ccccc3)c2n1` [N-(4-fluorobenzylidene)-2-(3,6-dimethyl-1-phenyl-1H-pyrazolo[3,4-d]pyrimidin-4-yloxy)acetohydrazide (12b)], the pIC50 was 4.52.
